Laboratory results taken from article PMC10376999 (Biomedicines, 2023).
Several values for one entry are separate records, joined by “and”; a condition that tells them apart may be missing. Identical values can stand only once. Like-named read-outs stand apart in the source and are kept apart here.

Key:
OAT1 = tested on: OAT1; design: method as in PMID 23140242, PMID 22470447; conditions: OAT1-mediated transport, Michaelis–Menten model; cited from earlier work
[1] = tested on: RPTEC/TERT1 artificial tubular barrier; experiment: Transport assay of R123 and HSA-647 across the artificial tubular barrier on Transwell inserts, static and in the microphysiological system (pressure, flow); conditions: for Concentration of R123 in the peritubular capillary after 48 h: start 2 µM
Protocol: (§1) Experiments were performed using an immortalized human renal proximal tubular epithelial cell line (RPTEC/TERT1) [21], which was supplied by Evercyte GmbH (Vienna, Austria). […] To bring these cells into culture 0.6 × 10^5 cells were seeded onto 24-well plates Thincert Transwell inserts (0.33 cm^2, 0.4 µm pore size; Greiner Bio-one) and further cultured in ProxUp Basal Medium (Evercyte, Austria). The cells were cultured on Thincert inserts (Greiner Bio-one, Frickenhausen, Germany) for at least 8 days to ensure the formation of a confluent cell monolayer. The cell layer integrity was confirmed by measuring the trans-epithelial electrical resistance (TEER) with an epithelial volt-ohm-meter (EVOM, Millicel, Darmstadt, Germany). Transwell inserts were used for transport experiments when TEER values exceeded 150 Ω × cm^2.
(§2) The transport of R123 and HSA-647 across the tubular barrier was carried out under static and dynamic cultivation conditions. The static conditions were carried out by placing the Transwell^TM inserts on a well plate, with no pressure or flow applied.
(§3) Fluorescence intensity at the beginning and end of the experiments was measured using a microplate reader (Tecan Infinite Pro, Tecan Group, Switzerland), and a miniaturized fluorescence reader (Fluo Sens Integrated, Qiagen, Hilden, Germany) was used for online monitoring. […] Using the calibration curves, the fluorescent intensity (FU) results were converted to concentration (µM).
(§4) During the transport assays, the decrease in the fluorescence intensity in the artificial microfluidic channels mimicking the peritubular capillary structures (in the well, see Figure 2; compartment 7) was measured constantly. R123 (2 μM) and HSA-647 (0.6 µM) were added to the cell culture medium and to the microfluidic channel (Figure 2), and a Transwell insert populated with cells (compartment 4 in Figure 2).
(§5) The whole system was then placed on the Qiagen fluorescence meter in such a way that only the fluorescence signal of the cell culture medium in the channels (compartment 1 in Figure 2) was measured every 120 s for maximum 48 h. Cell-free Transwell^TM inserts were used as a control. Transport assay experiments for each condition were performed and measured in triplicates.

MDR1 [2] = biological target: MDR1 (Homo sapiens, UniProt P08183); experiment: Kinetic characterization (Hill fit) of MDR1-mediated R123 transport above the artificial tubular barrier
Sequence of MDR1 (Homo sapiens, UniProt P08183) (P08183 whole entry): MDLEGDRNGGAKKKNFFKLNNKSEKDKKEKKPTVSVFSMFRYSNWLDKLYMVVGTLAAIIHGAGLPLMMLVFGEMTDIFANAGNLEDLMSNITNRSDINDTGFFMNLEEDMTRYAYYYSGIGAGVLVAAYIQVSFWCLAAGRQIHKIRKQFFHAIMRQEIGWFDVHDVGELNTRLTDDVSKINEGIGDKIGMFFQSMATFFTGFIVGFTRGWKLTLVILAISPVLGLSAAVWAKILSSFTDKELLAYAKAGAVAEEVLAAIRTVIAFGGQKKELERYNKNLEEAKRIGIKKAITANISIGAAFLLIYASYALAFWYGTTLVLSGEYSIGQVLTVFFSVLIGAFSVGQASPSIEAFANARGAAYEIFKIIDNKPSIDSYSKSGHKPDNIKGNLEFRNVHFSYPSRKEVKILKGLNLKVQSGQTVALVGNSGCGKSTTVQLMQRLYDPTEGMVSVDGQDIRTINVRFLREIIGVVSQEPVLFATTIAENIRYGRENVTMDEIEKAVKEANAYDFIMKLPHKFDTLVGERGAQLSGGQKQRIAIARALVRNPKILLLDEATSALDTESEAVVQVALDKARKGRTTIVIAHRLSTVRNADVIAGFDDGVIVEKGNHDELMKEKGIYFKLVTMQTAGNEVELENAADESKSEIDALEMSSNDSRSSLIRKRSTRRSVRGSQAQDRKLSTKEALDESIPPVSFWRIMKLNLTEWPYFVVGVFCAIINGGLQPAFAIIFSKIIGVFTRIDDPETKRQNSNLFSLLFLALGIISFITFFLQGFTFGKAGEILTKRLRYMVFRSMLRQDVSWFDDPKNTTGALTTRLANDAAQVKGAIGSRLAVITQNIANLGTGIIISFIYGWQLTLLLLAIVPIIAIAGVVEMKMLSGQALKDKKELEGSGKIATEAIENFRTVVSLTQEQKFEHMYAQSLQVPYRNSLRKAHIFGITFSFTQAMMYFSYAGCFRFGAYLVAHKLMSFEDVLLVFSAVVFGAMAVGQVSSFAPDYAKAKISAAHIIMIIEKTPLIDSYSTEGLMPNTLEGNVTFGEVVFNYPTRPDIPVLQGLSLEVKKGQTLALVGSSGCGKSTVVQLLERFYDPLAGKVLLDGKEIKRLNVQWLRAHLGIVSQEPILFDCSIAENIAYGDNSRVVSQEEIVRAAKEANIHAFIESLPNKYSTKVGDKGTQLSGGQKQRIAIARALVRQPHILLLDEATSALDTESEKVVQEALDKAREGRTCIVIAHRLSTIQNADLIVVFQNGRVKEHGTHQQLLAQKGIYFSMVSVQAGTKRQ
Text: (3) V=Vmax[S]^n/Km^n+[S]^n
(§6) In this equation, V is the substrate transport velocity in static conditions, [S] is the substrate (R123) concentration, Vmax is the maximum velocity of R123 transport, Km is Michaelis–Menten constant, and n is the Hill slope or degree, which usually explains the cooperative behavior in substance transport. It should be noted that, in this definition, Km = [S] when V = 0.5 Vmax.
(§7) It is assumed that when the inhibitor is present, any R123 molecule that passed through the membrane passed by means of passive transport [29]. […] (R123 concentration) curve was plotted (Figure 8) using online monitoring results, providing the R123 concentration.

MDR1 [3] = conditions: cited from earlier work
[4] = tested on: RPTEC/TERT1 artificial tubular barrier; conditions: human
Protocol: as §1, §2, §3, §4, §5

MDR1 [5] = tested on: MDR1; design: method as in PMID 28487651; conditions: tariquidar in interaction with MDR1; read-out: KI (inhibition constant); cited from earlier work
MDR1 [6] = experiment: Quantitative measurement of MDR1 expression by sandwich ELISA; format: cell-based, human; conditions: RPTECs, tariquidar 50 µg/mL, static and dynamic conditions
Protocol: To measure the amount of MDR1 expressed in different conditions, a sandwich enzyme-linked immunosorbent assay (ELISA) kit for MDR1 (antibodies-online, Aachen, Germany) was used. After each experiment, lysed cells were centrifuged at 5000× g for 5 min (at 4 °C); then, the supernatant was collected for ELISA [27]. For each experimental condition, three samples were prepared, with each sample measured in duplicates.
The amount of MDR1 expressed in the cell-based artificial proximal tubule was measured by the ELISA quantitative measurement.
To confirm, we performed the Student’s t-test; there is no significant difference in the mean values of MDR1 concentration in different conditions.

[7] = tested on: COC(=O)c1ccccc1-c1c2ccc(=N)cc-2oc2cc(N)ccc12
Text: (3) V=Vmax[S]^n/Km^n+[S]^n
as §6, §7

[8] = absence of inhibitor, static, from the literature

Compound: COC(=O)c1ccccc1-c1c2ccc(=N)cc-2oc2cc(N)ccc12 [R123, Rhodamine 123]
- Km (OAT1): 0.3 ± 0.1 µM
- Concentration of R123 in the peritubular capillary after 48 h ([1]; 0.13 µL/s flow, no tariquidar): 600 nM
- Concentration of R123 in the peritubular capillary after 48 h ([1]; 5 mbar pressure, no tariquidar): 1100 nM
- AVG R123 conc. In well, fluorescence endpoint after 48 hours ([1]; flow): 0.92 µM
- AVG R123 conc. In well, fluorescence endpoint after 48 hours ([1]; flow inhibited): 0.25 µM
- AVG R123 conc. In well, fluorescence endpoint after 48 hours ([1]; pressure): 0.68 µM
- AVG R123 conc. In well, fluorescence endpoint after 48 hours ([1]; pressure inhibited): 0.24 µM
- AVG R123 conc. In well, fluorescence endpoint after 48 hours ([1]; static inhibited): 0.22 µM
- Concentration of R123 in the peritubular capillary after 48 h ([1]; static, no tariquidar): 1500 nM
- Concentration of R123 in the peritubular capillary after 48 h ([1]; static, tariquidar present): 1700 nM
- Active transport rate of R123, JR123AT,flow (MDR1 [2]; 0.13 µL/s flow, total minus passive transport rate): 0.048 pmol/min
- Active transport rate of R123, JR123AT,pressure (MDR1 [2]; 5 mbar pressure, total minus passive transport rate): 0.042 pmol/min
- n (Hill slope) (MDR1 [2]; absence of inhibitor, static, present study): 2
- V'max (MDR1 [2]; presence of tariquidar, static, calculated from Vmax/(1+[I]/KI) with literature KI = 0.32 nM (ref 32)): 2.18 × 10^−7 pmol/min and 2.18 × 10^−7 (from Equation (3)) [32] pmol/min
- V'max (MDR1 [2]; presence of tariquidar, static, from curve fitting, present study): 1.25 × 10^−7 ± 3 × 10^−9 pmol/min and 1.25 × 10^−7 ± 3 × 10^−9 (from curve fitting) pmol/min
- n (Hill slope) (MDR1 [2]; presence of tariquidar, static, present study): 2
- Active transport rate of R123, JR123AT,static (MDR1 [2]; static, total minus passive transport rate): 0.038 pmol/min
- Km (MDR1 [3]; MDR1-mediated transport, Michaelis–Menten model): 17.5 ± 2.8 µM
- Km (MDR1 [3]; [8]): ~17.5 µM
- Vmax (MDR1 [3]; [8]): 0.0525 pmol/min and 0.0525 [22] pmol/min
- Km (MDR1 [3]; presence of inhibitor (non-competitive, Km unchanged), static, from the literature): ~17.5 µM
- n (Hill slope) (MDR1 [3]; presence of inhibitor, static, from the literature): 2 [22, 28]
- Passive transport of R123, JR123,F,PT, calculated from equation [4]: 0.026 pmol/min
- Passive transport of R123, JR123,P,PT, calculated from equation [4]: 0.0102 pmol/min
- Passive permeability P ([4]; 2 µM): 1.5e-08 L/min
- Rdiffflow (effect of flow on total transport compared to static) ([4]; 2 µM): 0.0434 pmol/min
- Rdiffpressure (effect of pressure on total transport compared to static) ([4]; 2 µM): 0.0009 pmol/min
- Total transport rate of R123, JR123flow ([4]; 2 µM): 0.112 pmol/min
- Total transport rate of R123, JR123pressure ([4]; 2 µM): 0.069 pmol/min
- Total transport rate of R123, JR123static ([4]; 2 µM): 0.068 pmol/min
- Sieving coefficient θ ([4]; 48 h, 2 µM): 0.22

Compound: COc1cc2c(cc1OC)CN(CCc1ccc(NC(=O)c3cc(OC)c(OC)cc3NC(=O)c3cnc4ccccc4c3)cc1)CC2 [tariquidar]
- Ki (MDR1 [5]): 320 pM
- Effect on the level of MDR1 protein (ELISA) (MDR1 [6]): did not affect the level of MDR1 protein

Compound: MDR1 (Homo sapiens)
- Km [7]: 17.47 ± 8 µM
